System: LPAAT (lysophosphatidic acyltransferase)
Experiment: inhibition of LPAAT activity
Assay type: biochemical
Conditions: extremely weak inhibitor; above clinically achievable concentrations

CC(=O)CCCCn1c(=O)c2c(ncn2C)n(C)c1=O [pentoxifylline, 1-(5-oxohexyl)3,7-dimethylxanthine, reference compound]
concentration required for inhibition of LPAAT activity: > 1 mM

Source: patent US6638938B1, “Method for preventing tissue injury from hypoxia” (Cell Therapeutics, Inc., priority 1993, dated 2003)
